Test results from ChEMBL document CHEMBL5331052, “Discovery of a novel water-soluble, rapid-release triptolide prodrug with improved drug-like properties and high efficacy in human acute myeloid leukemia” (Eur J Med Chem, 2022).
Each block holds one molecule with its values, some of them ahead of it.

Key:
MV4-11 [1] = assay: Antitumor activity against human MV4-11 cells xenografted in BALB/c nude mouse assessed as tumor growth inhibition at 0.5 mg/kg, po measured once every 2 days for 20 days relative to control; assay type: functional; conditions: MV4-11, 480 h, time 20 day, read-out: TGI
MV4-11 [2] = assay: Antitumor activity against human MV4-11 cells xenografted in BALB/c nude mouse assessed as tumor growth inhibition at 1 mg/kg, po measured once every 2 days for 20 days relative to control; assay type: functional; conditions: MV4-11, 480 h, time 20 day, read-out: TGI
[3] = Chemical stability of the compound in water assessed as parent compound remaining at 2 mg/ml measured immediately by HPLC analysis; assay type: physicochemical; conditions: read-out: Stability
[4] = Chemical stability of the compound in water assessed as parent compound remaining at 2 mg/ml measured after 4 hrs by HPLC analysis; assay type: physicochemical; conditions: read-out: Stability
[5] = Aqueous solubility of compound at 1 to 10 mg/ml by HPLC analysis; assay type: physicochemical; conditions: water; dose 1-10 mg/ml
[6] = Prodrug conversion in human plasma assessed as triptolide release at 1 mg/ml measured after 1.5 hrs by HPLC analysis; assay type: ADME, cell-free
[7] = Prodrug conversion in human plasma assessed as triptolide release at 50 ug/ml measured after 45 mins by HPLC analysis; assay type: ADME, cell-free; conditions: 0.75 h, dose 50 µg/ml
[8] = Prodrug conversion in Sprague-Dawley rat plasma assessed as triptolide release at 50 ug/ml measured after 30 mins by HPLC analysis; assay type: ADME, cell-free; conditions: 0.5 h, dose 50 µg/ml
[9] = Prodrug conversion in Sprague-Dawley rat plasma assessed as triptolide release at 500 ng/ml measured after 8 hrs by UPLC-MS/MS analysis; assay type: ADME, cell-free
[10] = Prodrug conversion in Sprague-Dawley rat plasma assessed as triptolide release at 500 ng/ml measured after 1.5 hrs by UPLC-MS/MS analysis; assay type: ADME, cell-free

Compound: CCc1nc(C(N)=O)c(Nc2ccc(N3CCC(N4CCN(C)CC4)CC3)c(OC)c2)nc1NC1CCOCC1 [GILTERITINIB]
inhibition in vivo at 0.5 mg/kg (MV4-11 [1]): 48.3%
inhibition in vivo at 1 mg/kg (MV4-11 [2]): 72%

remaining at 0 h, 2 mg/ml [3]: 95%
remaining at 4 h, 2 mg/ml [4]: 94.8%
solubility [5]: 7490 µg/mL
Drug metabolism [6]: Metabolite_Detected
Drug metabolism [7]: Metabolite_Detected
Drug metabolism [8]: Metabolite_Detected
Compound: CC(C)[C@]12O[C@H]1[C@@H]1O[C@]13[C@]1(O[C@H]1C[C@H]1C4=C(CC[C@@]13C)C(=O)OC4)[C@@H]2OC(=O)CCCOC(=O)CN1CCOCC1.Cl

Compound: CC(C)[C@]12O[C@H]1[C@@H]1O[C@]13[C@]1(O[C@H]1C[C@H]1C4=C(CC[C@@]13C)C(=O)OC4)[C@@H]2OCOP(=O)([O-])[O-].[Na+].[Na+] [MINNELIDE]
Drug metabolism [9]: Metabolite_Detected

Compound: CC(C)[C@]12O[C@H]1[C@@H]1O[C@]13[C@]1(O[C@H]1C[C@H]1C4=C(CC[C@@]13C)C(=O)OC4)[C@@H]2OC(=O)CCC(=O)[O-].[Na+] [OMTRIPTOLIDE SODIUM]
Drug metabolism [10]: Metabolite_Detected
